# Test results from paper PMC7050258, “Inhibition of MGAT2 modulates fat‐induced gut peptide release and fat intake in normal mice and ameliorates obesity and diabetes in ob/ob mice fed on a high‐fat diet” (FEBS Open Bio, 2020).
# Several values for one entry are separate records, joined by “and”; a condition that tells them apart may be missing. Equal values may be shown once.
# What was measured:
# C57BL/6J mice [1] = experiment: Oral meal tolerance test (MTT), plasma chylomicron TG; type: in vivo, mouse; settings: for Plasma CM/TG AUC (0-4 h), AVE: mean, N=6; for Plasma CM/TG AUC (0-4 h), individual animal: single animal values
# Protocol: Overnight‐fasted C57BL/6J mice underwent an MTT in the morning. Vehicle, CpdA (3, 10 mg·kg^−1), or Cpd B (3, 10 mg·kg^−1) was administered by gavage. The compound was suspended in 0.5% methylcellulose. […] Thirty minutes after injection, liquid meal (10 mL·kg^−1) comprising an admixture of corn oil and Ensure‐H (3 : 17 v/v) (Abbott Japan Co., Ltd., Tokyo, Japan) was orally loaded. Blood samples were collected preload (defined as 0 h) and 2 and 4 h after fat load, and plasma TG levels were measured. The area under the curve (AUC) of chylomicron TG (CM/TG), which is synthesized from dietary fat in the small intestine, was calculated by subtracting the plasma TG levels of the meal‐unloaded group from that of the meal‐loaded group.
# DGAT2 human = target: T1, DGAT2 human (Homo sapiens, UniProt Q96PD7); experiment: in vitro inhibitory activity against DGAT2; type: biochemical
# T1 sequence (Q96PD7 1-388): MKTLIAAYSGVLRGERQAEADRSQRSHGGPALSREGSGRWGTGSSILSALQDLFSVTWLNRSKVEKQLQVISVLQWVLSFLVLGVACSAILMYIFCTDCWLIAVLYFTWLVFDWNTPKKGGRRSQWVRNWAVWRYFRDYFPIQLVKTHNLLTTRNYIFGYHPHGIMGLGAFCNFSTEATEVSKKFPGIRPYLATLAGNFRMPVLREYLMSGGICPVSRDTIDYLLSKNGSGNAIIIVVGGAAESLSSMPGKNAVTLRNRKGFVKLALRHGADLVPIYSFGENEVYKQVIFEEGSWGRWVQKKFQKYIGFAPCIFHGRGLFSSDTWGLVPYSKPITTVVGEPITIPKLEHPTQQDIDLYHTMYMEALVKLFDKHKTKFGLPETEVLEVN
# Protocol: (§1) CpdB, CpdA, and pioglitazone were synthesized at Takeda Pharmaceutical Co., Ltd. (Tokyo, Japan). The in vitro inhibitory activities of CpdB and CpdA against MGAT2 and related acyltransferases (DGAT1, DGAT2, and ACAT1) were evaluated as described in our previous report 17 and patent application 19. Liraglutide (Victoza) was purchased from Novo Nordisk Pharma Ltd. (Bagsvaerd, Denmark). All other chemicals were of analytical grade and purchased from Wako Pure Chemicals (Osaka, Japan).
# mouse MGAT2 = mouse MGAT2 (Mus musculus, UniProt Q80W94); experiment: in vitro inhibitory activity against MGAT2 (mouse); type: biochemical
# Protocol: as §1
# human MGAT2 = human MGAT2 (Homo sapiens, UniProt Q3SYC2); experiment: in vitro inhibitory activity against MGAT2 (human); type: biochemical
# Protocol: as §1
# C57BL/6J mice [2] = experiment: Food choice test (HFD vs LFD); type: in vivo, mouse; settings: overnight, CpdB 10 mg/kg oral, liraglutide 0.04 mg/kg sc
# Protocol: The choice between HFD (D12451; Research Diets, Inc.) and low‐fat diet (LFD, 10% kcal fat, 3.8 kcal·g^−1; D124510B; Research Diets, Inc.) was assessed in C57BL/6J mice. Following habituation to normal chow, HFD and LFD were presented in separate containers simultaneously, and overnight food intake of each diet was monitored. The mice were divided into groups based on the data of food intake and body weight. Then, vehicle or CpdB (10 mg·kg^−1) was orally administered, and the overnight food intake of each diet was monitored. CpdB was suspended in 0.5% methylcellulose. As a positive control, liraglutide (0.04 mg·kg^−1) dissolved in 10% DMSO/saline was subcutaneously administered.
# C57BL/6J mice [3] = experiment: Fat-induced gut peptide release and plasma TG after meal or oil load; type: in vivo, mouse; settings: for Plasma total GLP-1 at 3 h, AVE / ΔPlasma total PYY AUC (0-2 h), AVE / Plasma total GLP-1 at 3 h, individual animal / ΔPlasma total PYY AUC (0-2 h), individual animal: CpdB 10 mg/kg oral; for Plasma total GLP-1 at 3 h, AVE / ΔPlasma total PYY AUC (0-2 h), AVE / Plasma TG at 2 h after oil load, AVE: mean, N=5; for Plasma total GLP-1 at 3 h, individual animal / ΔPlasma total PYY AUC (0-2 h), individual animal / Plasma TG at 2 h after oil load, individual animal: single animal values
# Protocol: CpdB was suspended in 0.5% methylcellulose. Thirty minutes after administration, fat was loaded via oral gavage of either olive oil (8 mL·kg^−1) or liquid meal as described above (10 mL·kg^−1). Blood samples were collected precompound administration (defined as 0 h) and 1, 2, and 3 h after fat loading. Plasma levels of peptide tyrosine–tyrosine (PYY) and GLP‐1 were measured. To confirm the in vivo efficacy of CpdB, plasma TG levels were measured 2 h after olive oil loading. Mice orally loaded with water (8 mL·kg^−1) following vehicle administration were prepared as the control group.
# Blood samples were collected from the tail or facial vein without anesthesia and centrifuged at 1500 g for 10 min at 4 °C to isolate the plasma. To prevent degradation of incretin hormone, blood samples were treated with not only heparin/aprotinin but also a dipeptidyl peptidase‐4 (DPP‐4) inhibitor. Plasma alanine aminotransferase […] levels were measured by an Autoanalyzer 7180 (Hitachi High‐Technologies Corporation, Tokyo, Japan). GHb was measured with an automated GHb analyzer (HLC‐723G8; Tosoh, Tokyo, Japan). Plasma insulin was measured with an ELISA kit (Shibayagi Co., Ltd., Gunma, Japan). Plasma levels of total GLP‐1 and total PYY were also measured with an ELISA kit (Wako Pure Chemicals).
# DGAT1 human = target: T2, DGAT1 human (Homo sapiens, UniProt O75907); experiment: in vitro inhibitory activity against DGAT1; type: biochemical
# T2 sequence (O75907 1-488): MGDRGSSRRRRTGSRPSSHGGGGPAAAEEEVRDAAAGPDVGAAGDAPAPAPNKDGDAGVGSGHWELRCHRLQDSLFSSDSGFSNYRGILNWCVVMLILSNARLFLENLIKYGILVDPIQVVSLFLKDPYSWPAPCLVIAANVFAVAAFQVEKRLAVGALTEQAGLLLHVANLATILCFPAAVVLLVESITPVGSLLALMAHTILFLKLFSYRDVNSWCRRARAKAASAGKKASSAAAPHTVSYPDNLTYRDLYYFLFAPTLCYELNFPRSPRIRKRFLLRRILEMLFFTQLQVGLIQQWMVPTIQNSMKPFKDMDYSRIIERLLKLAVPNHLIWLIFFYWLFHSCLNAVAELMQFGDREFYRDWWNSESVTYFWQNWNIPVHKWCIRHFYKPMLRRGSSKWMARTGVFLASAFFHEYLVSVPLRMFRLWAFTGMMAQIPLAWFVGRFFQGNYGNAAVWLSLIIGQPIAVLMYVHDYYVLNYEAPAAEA
# Protocol: as §1
# human MGAT2, sequence (Q3SYC2 whole entry): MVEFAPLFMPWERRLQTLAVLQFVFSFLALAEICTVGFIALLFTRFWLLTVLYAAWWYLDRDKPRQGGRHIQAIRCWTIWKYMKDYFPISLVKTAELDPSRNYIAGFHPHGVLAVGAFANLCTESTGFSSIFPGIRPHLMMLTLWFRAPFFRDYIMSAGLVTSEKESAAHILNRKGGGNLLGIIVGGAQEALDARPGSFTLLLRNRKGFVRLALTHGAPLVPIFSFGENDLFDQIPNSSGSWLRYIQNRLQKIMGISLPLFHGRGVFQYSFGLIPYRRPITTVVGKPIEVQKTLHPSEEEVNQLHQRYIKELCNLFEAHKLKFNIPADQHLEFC
# mouse MGAT2, sequence (Q80W94 whole entry): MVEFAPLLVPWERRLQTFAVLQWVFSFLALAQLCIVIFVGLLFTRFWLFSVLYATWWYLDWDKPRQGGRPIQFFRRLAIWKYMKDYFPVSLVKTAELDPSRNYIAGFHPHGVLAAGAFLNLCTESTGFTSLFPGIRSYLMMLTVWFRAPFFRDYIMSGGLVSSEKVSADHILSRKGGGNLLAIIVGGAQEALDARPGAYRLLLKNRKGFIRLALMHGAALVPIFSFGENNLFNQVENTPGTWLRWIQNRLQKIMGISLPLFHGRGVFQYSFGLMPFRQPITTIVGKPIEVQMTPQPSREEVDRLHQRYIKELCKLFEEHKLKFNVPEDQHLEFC
compound,measurement,setting,value
CC(C)(OC(=O)N[C@H]1CC[C@H](OC(=O)N2CCc3cc(S(=O)(=O)Nc4c(F)cc(Cl)cc4F)cc(N4CCCC4=O)c32)CC1)C(F)(F)F [CpdB],"Plasma CM/TG AUC (0-4 h), AVE",C57BL/6J mice [1]; 3 mg/kg oral at -6.5 h,3977.6 mg/dLxh
same,"Plasma CM/TG AUC (0-4 h), individual animal",C57BL/6J mice [1]; 3 mg/kg oral at -6.5 h,3401.5 mg/dLxh and 5885.8 mg/dLxh and 3966.4 mg/dLxh and 3504.4 mg/dLxh and 3174.7 mg/dLxh and 3932.8 mg/dLxh
same,decrease of plasma CM/TG AUC compared with the vehicle group,C57BL/6J mice [1]; 10 mg/kg oral at -6.5 h,37%
same,"Plasma CM/TG AUC (0-4 h), AVE",C57BL/6J mice [1]; 10 mg/kg oral at -6.5 h,4365.7 mg/dLxh
same,"Plasma CM/TG AUC (0-4 h), individual animal",C57BL/6J mice [1]; 10 mg/kg oral at -6.5 h,5644.3 mg/dLxh and 4575.4 mg/dLxh and 4611.1 mg/dLxh and 3882.4 mg/dLxh and 3535.9 mg/dLxh and 3945.4 mg/dLxh
same,"Plasma CM/TG AUC (0-4 h), individual animal",C57BL/6J mice [1]; 10 mg/kg oral at -16.5 h,3845.1 mg/dLxh and 6306.3 mg/dLxh and 6722.1 mg/dLxh and 3383.1 mg/dLxh and 3918.6 mg/dLxh and 3231.9 mg/dLxh
same,"Plasma CM/TG AUC (0-4 h), AVE",C57BL/6J mice [1]; 10 mg/kg oral,4567.8 mg/dLxh
same,IC50,DGAT2 human,> 30000 nM
same,IC50,mouse MGAT2,0.85 nM
same,"selectivity against related acyltransferases (DGAT1, DGAT2, and ACAT1)","human MGAT2; MGAT2 vs DGAT1, DGAT2, ACAT1",greater than 300 fold
same,IC50,human MGAT2; human MGAT2,8.1 nM
same,"Food intake, energy intake of HFD, AVE","C57BL/6J mice [2]; mean, N=5",9.74 kcal
same,"Food intake, energy intake of low-fat diet, AVE","C57BL/6J mice [2]; mean, N=5",0.16 kcal
same,"Food intake, total energy intake, AVE","C57BL/6J mice [2]; mean, N=5",9.90 kcal
same,"Food intake, energy intake of HFD, individual animal",C57BL/6J mice [2]; single animal values,9.96 kcal and 11.47 kcal and 8.41 kcal and 8.88 kcal
same,"Food intake, energy intake of low-fat diet, individual animal",C57BL/6J mice [2]; single animal values,0.23 kcal and 0.00 kcal and 0.34 kcal
same,"Food intake, total energy intake, individual animal",C57BL/6J mice [2]; single animal values,10.19 kcal and 11.47 kcal and 8.41 kcal and 9.23 kcal
same,"Plasma total GLP-1 at 3 h, AVE",C57BL/6J mice [3]; liquid meal load,1.78 pM
same,"ΔPlasma total PYY AUC (0-2 h), AVE",C57BL/6J mice [3]; liquid meal load,6.19 pMxh
same,"Plasma total GLP-1 at 3 h, individual animal",C57BL/6J mice [3]; liquid meal load,4.08 pM and 1.57 pM and 0.30 pM and 2.65 pM
same,"ΔPlasma total PYY AUC (0-2 h), individual animal",C57BL/6J mice [3]; liquid meal load,7.70 pMxh and -9.56 pMxh and 10.56 pMxh and 11.27 pMxh and 10.99 pMxh
same,"Plasma TG at 2 h after oil load, AVE","C57BL/6J mice [3]; oil load, 10 mg/kg oral",242.5 mg/dL
same,"Plasma TG at 2 h after oil load, individual animal","C57BL/6J mice [3]; oil load, 10 mg/kg oral, 10 mg/kg",165.0 mg/dL and 186.0 mg/dL and 337.8 mg/dL and 259.8 mg/dL and 264.0 mg/dL
same,"Plasma TG at 2 h after oil load, AVE","C57BL/6J mice [3]; oil load, 30 mg/kg oral",219.8 mg/dL
same,"Plasma TG at 2 h after oil load, individual animal","C57BL/6J mice [3]; oil load, 30 mg/kg oral, 30 mg/kg",261.0 mg/dL and 281.4 mg/dL and 164.4 mg/dL and 231.0 mg/dL and 161.4 mg/dL
same,"Plasma total GLP-1 at 3 h, AVE",C57BL/6J mice [3]; oil load,17.63 pM
same,"ΔPlasma total PYY AUC (0-2 h), AVE",C57BL/6J mice [3]; oil load,68.45 pMxh
same,"Plasma total GLP-1 at 3 h, individual animal",C57BL/6J mice [3]; oil load,14.07 pM and 19.72 pM and 15.79 pM and 16.41 pM and 22.18 pM
same,"ΔPlasma total PYY AUC (0-2 h), individual animal",C57BL/6J mice [3]; oil load,83.34 pMxh and 44.80 pMxh and 90.28 pMxh and 47.69 pMxh and 76.14 pMxh
same,IC50,DGAT1 human,2500 nM
